# Measurements: ChEMBL document CHEMBL1275437, “Prevalence of serotype 19A Streptococcus pneumoniae among isolates from U.S. children in 2005-2006 and activity of faropenem” (2008)
# Key:
# Streptococcus pneumoniae [1] = experiment: Antibacterial activity against multidrug-resistant Streptococcus pneumoniae infected in mouse neutropenic thigh infection model; format: functional; conditions: Thigh muscle
# Streptococcus pneumoniae [2] = experiment: Antibacterial activity against Streptococcus pneumoniae serotype 23A by broth microdilution method; format: functional
# Streptococcus pneumoniae [3] = experiment: Antibacterial activity against Streptococcus pneumoniae serotype 35B by broth microdilution method; format: functional
# Streptococcus pneumoniae [4] = experiment: Antibacterial activity against Streptococcus pneumoniae serotype 6A/C by broth microdilution method; format: functional
# Streptococcus pneumoniae [5] = experiment: Antibacterial activity against Streptococcus pneumoniae serotype 22 by broth microdilution method; format: functional
# Streptococcus pneumoniae [6] = experiment: Antibacterial activity against Streptococcus pneumoniae serotype 15A by broth microdilution method; format: functional
# Streptococcus pneumoniae [7] = experiment: Antibacterial activity against Streptococcus pneumoniae serotype 3 by broth microdilution method; format: functional
# [8] = T>MIC in mouse neutropenic thigh infection model infected with multidrug-resistant Streptococcus pneumoniae; format: functional, Thigh muscle
# Streptococcus pneumoniae [9] = experiment: Antibacterial activity against Streptococcus pneumoniae serotype 33 by broth microdilution method; format: functional
# Streptococcus pneumoniae [10] = experiment: Antibacterial activity against Streptococcus pneumoniae serotype 19A by broth microdilution method; format: functional
# Streptococcus pneumoniae [11] = experiment: Antibacterial activity against non-multidrug-resistant Streptococcus pneumoniae; format: functional
# [12] = T>MIC in mouse prophylaxis model infected with Bacillus anthracis; format: functional
# Streptococcus pneumoniae [13] = experiment: Antibacterial activity against multidrug-resistant Streptococcus pneumoniae; format: functional
# Streptococcus pneumoniae [14] = experiment: Antibacterial activity against Streptococcus pneumoniae serotype 19F by broth microdilution method; format: functional
# Streptococcus pneumoniae [15] = experiment: Antibacterial activity against Streptococcus pneumoniae serotype 22 assessed as percent susceptible isolates by broth microdilution method in presence of clavulanate; format: functional
# Streptococcus pneumoniae [16] = experiment: Antibacterial activity against Streptococcus pneumoniae serotype 35B assessed as percent resistant isolates by broth microdilution method in presence of clavulanate; format: functional
# Streptococcus pneumoniae [17] = experiment: Antibacterial activity against Streptococcus pneumoniae serotype 15A assessed as percent resistant isolates by broth microdilution method in presence of clavulanate; format: functional
# Streptococcus pneumoniae [18] = experiment: Antibacterial activity against Streptococcus pneumoniae serotype 23A assessed as percent resistant isolates by broth microdilution method in presence of clavulanate; format: functional
# Streptococcus pneumoniae [19] = experiment: Antibacterial activity against Streptococcus pneumoniae serotype 19F by broth microdilution method in presence of clavulanate; format: functional
# Streptococcus pneumoniae [20] = experiment: Antibacterial activity against Streptococcus pneumoniae serotype 22 by broth microdilution method in presence of clavulanate; format: functional
# Streptococcus pneumoniae [21] = experiment: Antibacterial activity against Streptococcus pneumoniae serotype 23A by broth microdilution method in presence of clavulanate; format: functional
# Streptococcus pneumoniae [22] = experiment: Antibacterial activity against Streptococcus pneumoniae serotype 15A by broth microdilution method in presence of clavulanate; format: functional
# Streptococcus pneumoniae [23] = experiment: Antibacterial activity against Streptococcus pneumoniae serotype 19F assessed as percent resistant isolates by broth microdilution method in presence of clavulanate; format: functional
# Streptococcus pneumoniae [24] = experiment: Antibacterial activity against Streptococcus pneumoniae serotype 33 assessed as percent resistant isolates by broth microdilution method in presence of clavulanate; format: functional
# Streptococcus pneumoniae [25] = experiment: Antibacterial activity against Streptococcus pneumoniae serotype 33 by broth microdilution method in presence of clavulanate; format: functional
# Streptococcus pneumoniae [26] = experiment: Antibacterial activity against Streptococcus pneumoniae serotype 19A assessed as percent resistant isolates by broth microdilution method in presence of clavulanate; format: functional
# Streptococcus pneumoniae [27] = experiment: Antibacterial activity against Streptococcus pneumoniae serotype 6A/C assessed as percent susceptible isolates by broth microdilution method in presence of clavulanate; format: functional
# Streptococcus pneumoniae [28] = experiment: Antibacterial activity against Streptococcus pneumoniae serotype 3 assessed as percent susceptible isolates by broth microdilution method in presence of clavulanate; format: functional
# Streptococcus pneumoniae [29] = experiment: Antibacterial activity against Streptococcus pneumoniae serotype 35B assessed as percent susceptible isolates by broth microdilution method in presence of clavulanate; format: functional
# Streptococcus pneumoniae [30] = experiment: Antibacterial activity against Streptococcus pneumoniae serotype 19A assessed as percent susceptible isolates by broth microdilution method in presence of clavulanate; format: functional
# Streptococcus pneumoniae [31] = experiment: Antibacterial activity against Streptococcus pneumoniae serotype 3 assessed as percent resistant isolates by broth microdilution method in presence of clavulanate; format: functional
# Streptococcus pneumoniae [32] = experiment: Antibacterial activity against Streptococcus pneumoniae serotype 19F assessed as percent susceptible isolates by broth microdilution method in presence of clavulanate; format: functional
# Streptococcus pneumoniae [33] = experiment: Antibacterial activity against Streptococcus pneumoniae serotype 35B by broth microdilution method in presence of clavulanate; format: functional
# Streptococcus pneumoniae [34] = experiment: Antibacterial activity against Streptococcus pneumoniae serotype 3 by broth microdilution method in presence of clavulanate; format: functional
# Streptococcus pneumoniae [35] = experiment: Antibacterial activity against Streptococcus pneumoniae serotype 6A/C assessed as percent resistant isolates by broth microdilution method in presence of clavulanate; format: functional
# Streptococcus pneumoniae [36] = experiment: Antibacterial activity against Streptococcus pneumoniae serotype 15A assessed as percent susceptible isolates by broth microdilution method in presence of clavulanate; format: functional
# Streptococcus pneumoniae [37] = experiment: Antibacterial activity against Streptococcus pneumoniae serotype 22 assessed as percent resistant isolates by broth microdilution method in presence of clavulanate; format: functional
# Streptococcus pneumoniae [38] = experiment: Antibacterial activity against Streptococcus pneumoniae serotype 6A/C by broth microdilution method in presence of clavulanate; format: functional
# Streptococcus pneumoniae [39] = experiment: Antibacterial activity against Streptococcus pneumoniae serotype 19A by broth microdilution method in presence of clavulanate; format: functional
# Streptococcus pneumoniae [40] = experiment: Antibacterial activity against Streptococcus pneumoniae serotype 33 assessed as percent susceptible isolates by broth microdilution method in presence of clavulanate; format: functional
# Streptococcus pneumoniae [41] = experiment: Antibacterial activity against Streptococcus pneumoniae serotype 23A assessed as percent susceptible isolates by broth microdilution method in presence of clavulanate; format: functional
structure (smiles),measurement,setting,value
C[C@@H](O)[C@H]1C(=O)N2C(C(=O)O)=C([C@H]3CCCO3)S[C@H]12 [FAROPENEM],MIC90,Streptococcus pneumoniae [1],> 2 µg/mL
same,MIC90,Streptococcus pneumoniae [2],0.06 µg/mL
same,MIC90,Streptococcus pneumoniae [3],0.5 µg/mL
same,MIC90,Streptococcus pneumoniae [4],0.25 µg/mL
same,MIC90,Streptococcus pneumoniae [5],0.015 µg/mL
same,MIC90,Streptococcus pneumoniae [6],0.12 µg/mL
same,MIC90,Streptococcus pneumoniae [7],0.015 µg/mL
same,fT>MIC,[8],13.9%
same,MIC90,Streptococcus pneumoniae [9],0.015 µg/mL
same,MIC90,Streptococcus pneumoniae [10],1 µg/mL
same,MIC90,Streptococcus pneumoniae [11],0.25 µg/mL
same,fT>MIC,[12],16.4%
same,MIC90,Streptococcus pneumoniae [13],2 µg/mL
same,MIC90,Streptococcus pneumoniae [14],1 µg/mL
CC1(C)S[C@@H]2[C@H](NC(=O)[C@H](N)c3ccc(O)cc3)C(=O)N2[C@H]1C(=O)O [AMOXICILLIN],% susceptible isolates,Streptococcus pneumoniae [15],100%
same,% resistant isolates,Streptococcus pneumoniae [16],0%
same,% resistant isolates,Streptococcus pneumoniae [17],0%
same,% resistant isolates,Streptococcus pneumoniae [18],0%
same,MIC90,Streptococcus pneumoniae [19],16 µg/mL
same,MIC90,Streptococcus pneumoniae [20],≤ 0.12 µg/mL
same,MIC90,Streptococcus pneumoniae [21],0.25 µg/mL
same,MIC90,Streptococcus pneumoniae [22],0.25 µg/mL
same,% resistant isolates,Streptococcus pneumoniae [23],48%
same,% resistant isolates,Streptococcus pneumoniae [24],0%
same,MIC90,Streptococcus pneumoniae [25],≤ 0.12 µg/mL
same,% resistant isolates,Streptococcus pneumoniae [26],35%
same,% susceptible isolates,Streptococcus pneumoniae [27],97%
same,% susceptible isolates,Streptococcus pneumoniae [28],100%
same,% susceptible isolates,Streptococcus pneumoniae [29],100%
same,% susceptible isolates,Streptococcus pneumoniae [30],62%
same,% resistant isolates,Streptococcus pneumoniae [31],0%
same,% susceptible isolates,Streptococcus pneumoniae [32],47%
same,MIC90,Streptococcus pneumoniae [33],2 µg/mL
same,MIC90,Streptococcus pneumoniae [34],≤ 0.12 µg/mL
same,% resistant isolates,Streptococcus pneumoniae [35],3%
same,% susceptible isolates,Streptococcus pneumoniae [36],100%
same,% resistant isolates,Streptococcus pneumoniae [37],0%
same,MIC90,Streptococcus pneumoniae [38],1 µg/mL
same,MIC90,Streptococcus pneumoniae [39],8 µg/mL
same,% susceptible isolates,Streptococcus pneumoniae [40],100%
same,% susceptible isolates,Streptococcus pneumoniae [41],100%
